Values of other authors, collected in US20050004065A1, “Hypoxia regulated genes” (Quark Biotech, Inc., priority 1998, published 2005).

Tested on: neuron cells
Conditions: in vitro; previously shown

Compound	toxicity for neuron cells
CC(C)C(O)CC[C@@H](C)[C@H]1CC[C@H]2[C@@H]3CC=C4C[C@@H](O)CC[C@]4(C)[C@H]3CC[C@]12C (some centres unmarked) [24-hydroxycholesterol]	toxic for neuron cells in vitro
C[C@H](CCCC(C)(C)O)[C@H]1CC[C@H]2[C@@H]3CC=C4C[C@@H](O)CC[C@]4(C)[C@H]3CC[C@]12C [25-hydroxycholesterol]	toxic for neuron cells in vitro
